According to patent publication US20210238169A1, “PROCESS FOR PREPARING A COMPOUND OF FORMULA (XIII)” (PULMOCIDE LIMITED, priority 2014, published 2021):
Values after ≈ are worked out from the molar mass of the structure shown.

Columns and labels:
[1] = system: Aspergillus fumigatus (ATCC 13073); assay: In vivo anti-fungal activity: CFU in lung and galactomannan in BALF and serum; set-up: species or system mice; conditions: for ID50, GM in BALF / ID50, GM in serum / ID50, Lung Fungal Load: Prophylactic Regimen
Description: Aspergillus fumigatus (ATCC 13073 [strain: NIH 5233], American Type Culture Collection, Manassas, Va., USA) was grown on Malt agar (Nissui Pharmaceutical, Tokyo, Japan) plates for 6-7 days at RT (24±1° C.). Spores were aseptically dislodged from the agar plates and suspended in sterile distilled water with 0.05% Tween 80 and 0.1% agar. On the day of infection, spore counts were assessed by haemocytometer and the inoculum was adjusted to obtain a concentration of 1.67×10^8 spores mL^−1 of physiological saline.
On day 0, animals were infected with the spore suspension (35 μL intra-nasally).
Test compounds were administered intra-nasally ([…]) once daily, 30 min before infection on day 0 and then on days 1, 2 and 3 (representing prophylactic treatment) or on days 1, 2 and 3 only (representing therapeutic treatment). For extended prophylactic treatment, test compounds (35 μL of a suspension of 0.0032 or 0.016 mg/mL in physiological saline) were administered intra-nasally once daily for seven days; then 30 min before infection on day 0, and thereafter, either on days 1, 2 and 3 after infection, or on day 0 only. The effects of these treatment paradigms were compared with those obtained when treatment was restricted to one day and 30 min before inoculation and then on days 1, 2 and 3 post infection; or reduced still further to one day and 30 min before infection only.
Six hours after the last dose, animals were anesthetised, the trachea was cannulated and BALF was collected. The total number of alveolar cells was determined using a haemocytometer, and the numbers of alveolar macrophages and neutrophils were determined by FACS analysis (EPICS® ALTRA II, Beckman Coulter, Inc., Fullerton, Calif., USA) using anti-mouse MOMA2-FITC (macrophage) or anti-mouse 7/4 (neutrophil), respectively, as previously reported (Kimura et al., 2013). The levels of IFN-γ and IL-17 in BALF, and IL-6 and TNFα in serum were determined using Quantikine® mouse IFN-γ, IL-17, IL-6 or TNF-α ELISA kit (R&D systems, Inc., Minneapolis, Minn., USA) respectively. MDA, an oxidative stress marker, was assayed using OxiSelect® TBARS Assay Kits (MDA Quantitation; Cell Biolabs Inc, San Diego, Calif., USA). Aspergillus GM in serum was determination using Platelia GM-EIA kits (Bio-Rad Laboratories, Redmond, Wash., USA). Cut-off index was calculated by the formula: Cut-off index=OD in sample/OD in cut-off control provided in kit. For tissue fungal load assays, 100 mg of lung tissue was removed aseptically and homogenized in 0.2 mL of 0.1% agar in sterile distilled water. Serially diluted lung homogenates were plated on Malt agar plates (50 μL/plate), and incubated at 24±1° C. for 72 to 96 h. The colonies of A. fumigatus on each plate was counted and the fungal titre presented as CFU per gram of lung tissue.

[2] = system: Aspergillus fumigatus (NCPF2010); assay: Aspergillus fumigatus invasion in human alveoli bilayers (transwells), GM in lower chamber; assay type: cell-based; conditions: for DFB50 (days taken to reach a fungal burden of 50% of control) / GM Levels in the Lower Chamber, OD value / GM Levels in the Lower Chamber, % inhibition vs. control: Compound (I) 0.1 μg/mL upper chamber, Posaconazole 0.01 μg/mL lower chamber
Description: In vitro models of human alveoli, consisting of a bilayer of human alveolar epithelial cells and endothelial cells, were prepared as previously described (Hope et al., 2007). […] Primary human pulmonary artery endothelial cells (HPAEC) were harvested and diluted to 10^6 cells/mL in EGM-2 media (Lonza, Basel, Switzerland). Transwells were inverted and the cell suspension (100 μL/well) was applied to the base of each transwell. The inverted transwells were incubated at RT within a flow hood for 2 hr after which they were turned upright. EGM-2 media was added to the lower (700 μL/well) and upper (100 μL/well) compartments and the transwells were incubated for 48 hr (37° C., 5% CO2). The EGM-2 media in the lower compartment was then replaced with fresh EGM-2 media. A549 cells were harvested and diluted to 5×10^5 cells/mL in 10% EBM, then added to the upper compartment (100 μL/well) of all transwells and the plates incubated for 72 hr (37° C., 5% CO2). Conidia of Aspergillus fumigatus (the itraconazole sensitive strain NCPF2010 and the itraconazole resistant strain TR34-L98H) were cultured separately in Sabouraud dextrose agar for 3 days. A stock conidia suspension of either strain was prepared from a Sabouraud dextrose agar culture by washing with PBS-tween (10 mL; PBS containing 0.05% Tween-20, 100 U/mL Penicillin and 100 U/mL Streptomycin). The conidia count was assessed using a Neubauer haemocytometer and adjusted to 10^6 conidia/mL with PBS. A working stock of conidia was prepared in EBM (conc of 10^5 conidia/mL) immediately prior to use.
The media in the upper compartment was aspirated and that containing the appropriate test and reference compounds, or vehicle, were added (100 μL/well). Transwells were then transferred into the 24-well plate containing the test and reference compounds or DMSO vehicle. After incubation for 1 hr (35° C., 5% CO2) the conidia suspension (10 μL/well) was added to the upper compartment of each transwell. Plates were then incubated for 24 hr (35° C., 5% CO2). Supernatants from each compartment (5 μL/compartment) were collected and stored (−20° C.). Media was replaced daily after collection of the supernatants and all wells were treated with test and reference compounds or with DMSO, as described above, for 3 days. Samples continued to be collected until fungal growth was visible by eye in all transwells. The levels of GM in the supernatant in lower compartment were then measured by ELISA (BioRad, CA, USA) as an index of Aspergillus fumigatus invasion.

[3] = Prophylactic Treatment, 0.08 mg/mL intra-nasally
[4] = Prophylactic Treatment, 0.4 mg/mL intra-nasally
[5] = Prophylactic Treatment, 2 mg/mL intra-nasally
[6] = Therapeutic Treatment, 0.4 mg/mL intra-nasally
[7] = Therapeutic Treatment, 2 mg/mL intra-nasally
[8] = Therapeutic Treatment, 10 mg/mL intra-nasally

CC[C@@H]([C@H](C)O)n1ncn(-c2ccc(N3CCN(c4ccc(OC[C@@H]5CO[C@@](Cn6cncn6)(c6ccc(F)cc6F)C5)cc4)CC3)cc2)c1=O [Posaconazole]
ID50, GM in BALF [1]: 1300 µg/mL (≈ 1860 µM)
ID50, GM in serum [1]: 470 µg/mL (≈ 671 µM)
ID50, Lung Fungal Load [1]: 240 µg/mL (≈ 342 µM)
DFB50 (days taken to reach a fungal burden of 50% of control) [2]: 1.45 days
GM Levels in the Lower Chamber, OD value ([2]; Treatment Day 0): 0 OD
GM Levels in the Lower Chamber, % inhibition vs. control ([2]; Treatment Day 1): 91%
GM Levels in the Lower Chamber, OD value ([2]; Treatment Day 1): 0.064 OD
GM Levels in the Lower Chamber, % inhibition vs. control ([2]; Treatment Day 2): 15%
GM Levels in the Lower Chamber, OD value ([2]; Treatment Day 2): 1.01 OD
GM Levels in the Lower Chamber, % inhibition vs. control ([2]; Treatment Day 3): 4.1%
GM Levels in the Lower Chamber, OD value ([2]; Treatment Day 3): 1.14 OD
GM Levels in the Lower Chamber, % inhibition vs. control ([2]; Treatment Day 4): 1.1%
GM Levels in the Lower Chamber, OD value ([2]; Treatment Day 4): 1.17 OD
GM Levels in the Lower Chamber, % inhibition vs. control ([2]; Treatment Day 5): −0.6%
GM Levels in the Lower Chamber, OD value ([2]; Treatment Day 5): 1.18 OD
GM Levels in the Lower Chamber, % inhibition vs. control ([2]; Treatment Day 6): −1.1%
GM Levels in the Lower Chamber, OD value ([2]; Treatment Day 6): 1.19 OD
GM Levels in the Lower Chamber, % inhibition vs. control ([2]; Treatment Day 7): 0.3%
GM Levels in the Lower Chamber, OD value ([2]; Treatment Day 7): 1.17 OD
GM Levels in the Lower Chamber, % inhibition vs. control ([2]; Treatment Day 8): 0.8%
GM Levels in the Lower Chamber, OD value ([2]; Treatment Day 8): 1.15 OD

Cc1cc(N2CCN(c3ccc(C(=O)Nc4ccc(F)cc4)cc3)CC2)ccc1OC[C@@H]1CO[C@@](Cn2cncn2)(c2ccc(F)cc2F)C1 [Compound (I), 4-(4-(4-(((3R,5R)-5-((1H-1,2,4-triazol-1-yl)methyl)-5-(2,4-difluorophenyl)tetrahydrofuran-3-yl)methoxy)-3-methylphenyl)piperazin-1-yl)-N-(4-fluorophenyl)benzamide]
ID50, GM in BALF [1]: <80 µg/mL
ID50, GM in serum [1]: <80 µg/mL
ID50, Lung Fungal Load [1]: 86 µg/mL (≈ 126 µM)
CFU in lung [1, 3]: 15.2 ± 13.7 /mg of lung
CFU in lung, % inhibition [1, 3]: 46%
GM in BALF [1, 3]: 0.70 ± 0.39 COI
GM in BALF, % inhibition [1, 3]: 85%
GM in serum [1, 3]: 0.81 ± 0.52 COI
GM in serum, % inhibition [1, 3]: 85%
CFU in lung [1, 4]: 2.1 ± 1.6 /mg of lung
CFU in lung, % inhibition [1, 4]: 93%
GM in BALF [1, 4]: 0.37 ± 0.46 COI
GM in BALF, % inhibition [1, 4]: 92%
GM in serum [1, 4]: 0.24 ± 0.18 COI
GM in serum, % inhibition [1, 4]: 95%
CFU in lung [1, 5]: 0.8 ± 0.7 /mg of lung
CFU in lung, % inhibition [1, 5]: 97%
GM in BALF [1, 5]: 0.13 ± 0.02 COI
GM in BALF, % inhibition [1, 5]: 97%
GM in serum [1, 5]: 0.18 ± 0.07 COI
GM in serum, % inhibition [1, 5]: 97%
CFU in lung [1, 6]: 3.8 ± 1.0 /mg of lung
CFU in lung, % inhibition [1, 6]: 87%
GM in BALF [1, 6]: 0.24 ± 0.06 COI
GM in BALF, % inhibition [1, 6]: 95%
GM in serum [1, 6]: 0.29 ± 0.11 COI
GM in serum, % inhibition [1, 6]: 95%
CFU in lung [1, 7]: 1.9 ± 1.7 /mg of lung
CFU in lung, % inhibition [1, 7]: 93%
GM in BALF [1, 7]: 0.22 ± 0.14 COI
GM in BALF, % inhibition [1, 7]: 95%
GM in serum [1, 7]: 0.25 ± 0.19 COI
GM in serum, % inhibition [1, 7]: 95%
CFU in lung [1, 8]: 0.5 ± 0.3 /mg of lung
CFU in lung, % inhibition [1, 8]: 98%
GM in BALF [1, 8]: 0.11 ± 0.05 COI
GM in BALF, % inhibition [1, 8]: 98%
GM in serum [1, 8]: 0.24 ± 0.11 COI
GM in serum, % inhibition [1, 8]: 95%
DFB50 (days taken to reach a fungal burden of 50% of control) [2]: 1.13 days
effect of combination therapy on invasion in alveoli bilayers ([2]; Compound (I) combined with intraconazole, voriconazole or caspofungin (results not shown)): synergistic or additive effect
GM Levels in the Lower Chamber, % inhibition vs. control ([2]; Treatment Day 1): 86%
GM Levels in the Lower Chamber, OD value ([2]; Treatment Day 1): 0.091 OD
GM Levels in the Lower Chamber, % inhibition vs. control ([2]; Treatment Day 2): 3.4%
GM Levels in the Lower Chamber, OD value ([2]; Treatment Day 2): 1.15 OD
GM Levels in the Lower Chamber, % inhibition vs. control ([2]; Treatment Day 3): 3.7%
GM Levels in the Lower Chamber, OD value ([2]; Treatment Day 3): 1.14 OD
GM Levels in the Lower Chamber, % inhibition vs. control ([2]; Treatment Day 4): 4.5%
GM Levels in the Lower Chamber, OD value ([2]; Treatment Day 4): 1.13 OD
GM Levels in the Lower Chamber, % inhibition vs. control ([2]; Treatment Day 5): 0.3%
GM Levels in the Lower Chamber, % inhibition vs. control ([2]; Treatment Day 7): 0.9%
GM Levels in the Lower Chamber, OD value ([2]; Treatment Day 7): 1.16 OD
GM Levels in the Lower Chamber, % inhibition vs. control ([2]; Treatment Day 8): 2.8%
GM Levels in the Lower Chamber, OD value ([2]; Treatment Day 8): 1.13 OD
